The source of these data is publication PMC7730438, “Generation of KS-58 as the first K-Ras(G12D)-inhibitory peptide presenting anti-cancer activity in vivo” (Scientific Reports, 2020).

Starred links: 1 amine or outer side, 2 acyl side, 3 side chain; linkers in the order of their positions; H or OH if unused. Positions of bridges follow the written chain, without caps; N, C: chain ends. Non-standard residues stand in square brackets, D forms with d. Residues, ends and D or L forms follow the SMILES beside them. Phe(4-F) = N[C@@H](Cc1ccc(F)cc1)C(=O)O; X1 = CCCCCCC[C@H](N[*:1])C(=O)[*:2]; Nle = CCCC[C@H](N)C(=O)O; X2 = C(C[*:1])C[*:2]; βAla = NCCC(=O)O

Series [1] has as its system PANC-1 orthotopic xenografts. Briefly: Anti-cancer efficacy in PANC-1 orthotopic xenografts. The note with it: 40 mg/kg iv once every 2 days for 4 weeks. Type of series: in vivo, mice. The procedure:
To establish orthotropic xenograft tumor models, 2.5 × 10^6 cells/50 µL of PANC-1 cells were injected into the pancreas of BALB/cAJcl-nu/nu male mice (8 weeks old; CLEA Japan, Inc.). KS-58 was dissolved in DMSO and then tenfold diluted by saline. The peptide solution was then injected intravenously to the mice bearing tumors once every 2 days for 4 weeks (40 mg/kg, n = 7). Organ weights of the pancreas, liver, and kidney were measured.

The target in series [2] is T1, K-Ras(G12D)^GTP–BRAF interaction (Homo sapiens, UniProt P01116, G12D).
T1 construct: host or cells: HEK293T
Description: Intracellular PPI inhibition assay using NanoBiT in HEK293T cells. Type of series: cell-based. The note with it: peptide 30 µM, n = 4. The protocol: (§1) Intracellular protein–protein interaction (PPI) inhibition assays were carried out using the NanoBiT system (Promega). Three kinds of plasmids with CMV promoters, which encodes human K-Ras(G12D) fusing SmBiT to the N-terminus, encodes human SOS1 fusing LgBiT to the C-terminus, and encodes human BRAF fusing LgBiT to the C-terminus, were prepared by Promega. Each combination of plasmids was transfected to HEK293T cells by FuGENE HD Reagent (E2312, […]). After 30 h incubation at 37 °C under 5% CO2, the cells were recovered, and seeded to 96-well tissue culture white plate with 10% FBS containing DMEM, and incubated overnight. Peptides were added to the plate and incubated for another 2 h. Nano-Glo (Promega, N2011) was directly added to the plate, and luminescence was immediately monitored. Intracellular K-Ras(G12D)^GDP–SOS1 and K-Ras(G12D)^GTP–BRAF interactions (%) were calculated based on no peptide treatment as 100% and only transfection of plasmid encoding LgBiT fusion protein as 0%.

Series [3] concerns the target T2, K-Ras(G12D)^GDP–SOS1 interaction (Homo sapiens, UniProt P01116, G12D).
T2 construct: host or cells: HEK293T
Described as above. Type of series: cell-based. As to conditions: peptide 30 µM, n = 4. The procedure: as §1

In the case of `CCCCCCC[C@@H]1NC(=O)[C@@H]2CSCCCSC[C@@H](NC(=O)[C@H](Cc3c[nH]c4ccccc34)NC(=O)[C@@H]3CCCN3C(=O)[C@H](CC(=O)O)NC(=O)[C@H](Cc3ccc(F)cc3)NC(=O)[C@H](CO)NC1=O)C(=O)NCCC(=O)N1CCC[C@H]1C(=O)N[C@@H](CCCC)C(=O)N2` [KS-58, c[βAla-Pro-Nle-c(Cys-Anon-Ser-4fF-Asp-Pro-Trp-^DCys)]] (cyclo([βAla]P[Nle]C[X1]S[Phe(4-F)]DPW[dC]); linker 4-11 via X2), the “Adverse side effects (loss of body weight, organ swelling of liver and kidney)” value in series [1] (both xenografts) is given as “without any adverse side effects”. In addition, the “cell growth of PANC-1 (pancreas weight; Sham = 0%, vehicle = 100%)” value in series [1] (orthotopic xenograft) was determined as 65%. For the same compound, the “Intracellular K-Ras(G12D)^GTP–BRAF interaction (luminescence, %)” value in series [2] turned out to be 53.8%. The “Intracellular K-Ras(G12D)^GDP–SOS1 interaction (luminescence, %)” value in series [3] turned out to be 35.5%.
